Counter-ions that a name gives are not always drawn.

The term melting point denotes the temperature of the solid-liquid transition.

`CCN1CCN(c2nc(-c3ccc(C4=CCC(O)CC4)cc3)cc3ccsc23)CC1` (stereo not shown) (as salt: hydrochloride) [Example 270, 5-[4-(4-hydroxycyclohexen-1-yl)phenyl]-7-(4-ethylpiperazin-1-yl)thieno[2,3-c]pyridine hydrochloride] displayed a melting point of 168 to 170 °C.
With `CCCCC(=O)c1ccc(-c2cc3ccsc3c(N3CCN(CC)CC3)n2)cc1` (as salt: hydrochloride) [Example 271, 7-(1-ethylpiperazin-4-yl)-5-(4-pentanoylphenyl)phenyl)thieno[2,3-c]pyridine dihydrochloride] the figure was 109 to 114 °C; with `CCN1CCN(c2nc(-c3ccc(C(=O)CC(C)C)cc3)cc3ccsc23)CC1` (as salt: hydrochloride) [Example 272, 7-(1-ethylpiperazin-4-yl)-5-[4-(3-methylbutanoyl)phenyl]thieno[2,3-c]pyridine dihydrochloride], 139 to 141 °C; with `CCN1CCN(c2nc(-c3ccc(C(=O)NC4CCCCC4)cc3)cc3ccsc23)CC1` (as salt: hydrochloride) [Example 273, dihydrochloride], 160 to 165 °C.
`CCN1CCN(c2nc(-c3ccc(C(=O)N4CCCC4)cc3)cc3ccsc23)CC1` (as salt: hydrochloride) [Example 274, 7-(1-ethylpiperazin-4-yl)-5-[4-(pyrrolidinyl-1-carbonyl)phenyl]thieno[2,3-c]pyridine dihydrochloride] showed a melting point of 143 to 146 °C.
`COc1ccc(-c2cc3ccsc3c(N3CCN(CCO)CC3)n2)cc1` (as salt: hydrochloride) [Example 276, 5-(4-methoxyphenyl)-7-[4-(2-hydroxyethyl)piperazin-1-yl]thieno[2,3-c]pyridine hydrochloride] registered a melting point of 129 to 131 °C.
On to `CN1CCN(c2nc(-c3ccc(OCCO)cc3)cc3sccc23)CC1` (as salt: hydrochloride) [Example 279, 4-(4-methylpiperazin-1-yl)-6-[4-(2-hydroxyethoxy)phenyl]thieno[3,2-c]pyridine hydrochloride], for which the melting point lay within 148 to 150 °C.
`CCN1CCN(c2nc(-c3cccc(OCCO)c3)cc3sccc23)CC1` (as salt: hydrochloride) [Example 284, 4-(1-ethylpiperazin-4-yl)-6-[3-(2-hydroxyethoxy)phenyl]thieno-[3,2-c]pyridine dihydrochloride] gave a melting point of 126 to 130 °C.
In turn, `CCN1CCN(c2nc(-c3ccc(CCC(C)O)cc3)cc3sccc23)CC1` (stereo not shown) (as salt: hydrochloride) [Example 285, 4-(1-ethylpiperazin-4-yl)-6-[4-(3-hydroxybutyl)phenyl]thieno[3,2-c]pyridine hydrochloride] returned a melting point of 122 to 124 °C.
With `CCN1CCN(c2nc(-c3ccc(OCCO)cc3)cc3sccc23)CC1` (as salt: hydrochloride) [Example 286, dihydrochloride] the figure was 128 to 129 °C; with `CN1CCN(c2nc(-c3ccc(OCC(C)(C)O)cc3)cc3sccc23)CC1` (as salt: hydrochloride) [Example 288, 6-[4-(2-methyl-2-hydroxypropoxy)phenyl]-4-(4-methylpiperazin-1-yl)thieno[3,2-c]pyridine hydrochloride], 135 to 138 °C.
To `CCCN1CCN(c2nc(-c3ccc(OCC(C)(C)O)cc3)cc3sccc23)CC1` (as salt: hydrochloride) [Example 289, 6-[4-(2-methyl-2-hydroxypropoxy)phenyl]-4-(4-propylpiperazin-1-yl)thieno[3,2-c]pyridine hydrochloride] belongs 133 to 135 °C; to `CCN1CCN(c2nc(-c3ccc(CCC(C)(C)O)cc3)cc3sccc23)CC1` (as salt: hydrochloride) [Example 291, 4-[4-ethylpiperazin-1-yl)-6-[4-(3-hydroxy-3-methylbutyl)phenyl]thieno[3,2-c]pyridine dihydrochloride], 116 to 117.5 °C.
